{
  "source": "patent US6461610B1",
  "about": "“Methods for modifying cell motility using factor VIIa or inactivated factor VIIa” (Novo Nordisk A/S, priority 1997, dated 2002)",
  "molecules": {"B1": {"name": "[Ala344]FVII: FVII with Ala at catalytic residue 344 (protein, UniProt P08709 1-466, looked up, variant S344A)", "chain": "MVSQALRLLCLLLGLQGCLAAGGVAKASGGETRDMPWKPGPHRVFVTQEEAHGVLHRRRRANAFLEELRPGSLERECKEEQCSFEEAREIFKDAERTKLFWISYSDGDQCASSPCQNGGSCKDQLQSYICFCLPAFEGRNCETHKDDQLICVNENGGCEQYCSDHTGTKRSCRCHEGYSLLADGVSCTPTVEYPCGKIPILEKRNASKPQGRIVGGKVCPKGECPWQVLLLVNGAQLCGGTLINTIWVVSAAHCFDKIKNWRNLIAVLGEHDLSEHDGDEQSRRVAQVIIPSTYVPGTTNHDIALLRLHQPVVLTDHVVPLCLPERTFSERTLAFVRFSLVSGWGQLLDRGATALELMVLNVPRLMTQDCLQQSRKVGDSPNITEYMFCAGYSDGSKDSCKGDAGGPHATHYRGTWYLTGIVSWGQGCATVGHFGVYTRVSQYIEWLQKLMRSEPRPGVLLRAPFP"}},
  "key": {"[1]": {"target": "T1, factor VIIa/tissue factor complex (Homo sapiens, UniProt P08709)", "T1 construct": "TF1-218 from Dr W. Kisiel, University of New Mexico", "T1 sequence (P08709 61-212 limits assumed)": "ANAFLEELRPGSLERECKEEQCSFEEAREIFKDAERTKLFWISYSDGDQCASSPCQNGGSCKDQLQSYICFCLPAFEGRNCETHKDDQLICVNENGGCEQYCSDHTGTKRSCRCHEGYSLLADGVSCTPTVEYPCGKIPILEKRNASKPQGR", "T1 sequence (P08709 213-466 limits assumed)": "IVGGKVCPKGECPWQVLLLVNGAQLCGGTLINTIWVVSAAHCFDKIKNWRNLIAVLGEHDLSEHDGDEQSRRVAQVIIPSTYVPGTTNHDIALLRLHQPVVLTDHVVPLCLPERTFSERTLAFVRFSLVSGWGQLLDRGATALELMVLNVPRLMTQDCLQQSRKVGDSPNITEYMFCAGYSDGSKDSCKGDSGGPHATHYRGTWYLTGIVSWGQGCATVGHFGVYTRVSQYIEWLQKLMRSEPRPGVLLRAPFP", "experiment": "TF-stimulated factor VIIa activity with chromogenic substrate S2288, zinc ion inhibition", "type": "biochemical", "conditions": "0.2 mM cystin dihydroxamate; 10 nM FVIIa, 50 nM TF1-218", "method": "Factor VIIa activity was measured with the chromogenic substrate S2288 (H-D-Ile-Pro-Arg-p-nitroanilide). The activity of 10 nM FVIIa in the presence of 50 nM TF1-218 (Dr W. Kisiel, University of New Mexico, Albuquerque, N. Mex.) was measured in buffer containing 50 mM TrisCl pH 7.4 0.1 M NaCl, 1 mM CaCl2, 0.05% Tween 20 and 0.4 mM S2288. The activity was measured at room temperature as the change in absorbance at 405 nm."}, "human TF": {"tested_on": "human TF", "experiment": "SRE/STAT luciferase reporter (KZ136) in BHK cells stably transfected with human TF", "type": "cell-based", "conditions": "50 μM PD98059 for one hour prior to 100 nM FVIIa", "description": "BHK cells with and without stably transfected TF were stably transfected with KZ136 (reporter construct encoding 2×STAT1,3), 2×(STAT4,5,6) and a serum response element (SRE) upstream to a luciferase reporter gene) were stimulated with FVIIa. Only cells expressing TF responded to FVIIa in a dose dependent manner.\nPD98059 is a specific inhibitor of MEK1, a kinase specifically involved in the p44/p42 MAPK cascade.\nBHK cells stably transfected with the human TF and the reporter plasmid KZ136 were grown to 90% confluence, starved in DMEM with 0.1% FCS for 16 hours and then stimulated with FVIIa or FVIIai (FIG. 8). […] Also shown in FIG. 8 is an experiment where competition between FVIIa and FVIIai was studied. FVIIai was added to the cells 1 hour prior to stimulation with 20 nM FVIIa. The response induced by 20 nM FVIIa was inhibited 27%, 59%, 77%, and 91% by the addition of 20 nM, 50 nM, 100 nM, and 500 nM FVIIai, respectively."}, "[2]": {"tested_on": "human foreskin fibroblasts AG1523", "experiment": "Chemotaxis assay, modified Boyden chamber, PDGF-BB induced migration of fibroblasts", "type": "cell-based", "conditions": "for effect of inhibitor on FVIIa/TF hyperchemotactic response to PDGF-BB: 30 min pretreatment; for migration of fibroblast in response to PDGF without FVIIa: without the ligand FVIIa", "method": "Chemotaxis assay. The migration response of fibroblasts was assayed by means of the leading front technique in a modified Boyden chamber, as previously described (Nister et al., Cell 52, 791-799 (1988); Siegbahn et al. J. Clin. Invest. 85, 916-920 (1990)). Micropore filters (pore size 8 μm) were coated with a solution of type-i collagen at room temperature over night. The filters were air dried for 30 minutes immediately before use.\nHuman foreskin fibroblasts AG1523 were grown to confluence in Eagle's MEM supplemented with 10% FBS. The cells were detached by trypsinization (2.5 mg/ml for 10 minutes at 37° C.) and suspended in Eagle's MEM with 10% FBS. The fibroblasts were incubated for 10 minutes with or without FVIIa or FFR-FVIIa before assay. One hundred microliters of the cell suspension (2×10^5 cells/ml) was added above the filter of the Boyden chamber. PDGF-BB was diluted in assay media (Eagle's MEM with 10% FBS) and added below the filter in the chamber. The cells were incubated for 6 hours at 37° C. in a humidified chamber containing 95% air/5% CO2. FVIIa or FFR-FVIIa were present during the entire experiment. The filters were then removed, fixed in ethanol, stained with Mayer's Hemalun, and mounted. Migration was measured as the distance of the two furthest migrating fibroblast nuclei of one high-power field (12.5×24) in focus. The migration distance in each filter was calculated as the mean of the readings of at least three different parts of the filter. Experiments were performed with two to four separate filters for each concentration of chemoattractant. For each set of experiments, the migration of fibroblasts toward the assay media served as control. In cases when anti-TF monoclonal antibodies or inhibitors to coagulation factors, TAP and Hirudin, were used, cells were preincubated for 10 minutes with these agents, then with or without FVIIa or FFR-FVIIa before the chemotaxis assay was performed. Antibodies, TAP or Hirudin were also present during the entire chemotaxis experiment. In experiments where the effects on the migration response of different inhibitors, LY294002, U73122 or U73343, were tested, cells were preincubated for 30 minutes with the inhibitors at indicated concentrations, and the inhibitors were also present throughout the experiments.\nFibroblasts expressing active TF (FIG. 11) were incubated with 100 nM of FVIIa and seeded in the upper part of the modified Boyden chamber; while media containing 10% FBS and PDGF-BB at different concentrations were added below the […] micropore filter. The migration of the cells under conditions where medium containing 10% FBS without PDGF-BB was added below the filter was used as a measure of random migration, and calculated as 100% migration."}, "MAPK p44/42": {"tested_on": "MAPK p44/42", "experiment": "Western blot of phosphorylated MAPK p44/42 in BHK cells stably transfected with human TF", "type": "cell-based", "conditions": "100 nM for 5 min", "method": "In this set of experiments with TF transfected BHK, ECV-304 and MDCK cell lines two antibodies raised against the MAPK were used, one targeting activated as well as non-activated forms of MAPK, and another, targeting only the activated (phosphorylated) form of MAPK.\nBHK cells stable transfected with human TF were grown to 90% confluence and starved in DMEM with 0. 1% FCS for 24 hours prior to stimulation with FVIIa. Samples for Western blotting were sampled at 0, 3, 5, 7, 10, 20 and 40 minutes after addition of 100 nM FVIIa. […] Over the next 10 minutes the response declined to reach the background level at about 20 minutes after addition of FVIIa.\nIn this set of experiments with TF transfected BHK cell lines we used a phospho-specific antibody against phosphorylated (Thr202/Tyr204) p44/42 MAPK and an antibody targeting total p44/42 MAPK (New Englands Biolabs, Beverly, Mass.).\nBHK cells stable transfected with human TF were grown to 90% confluence and starved in DMEM with 0.1% FCS for 24 hours prior to stimulation. In FIG. 9A the cells were stimulated with 100 nM FVIIa for 0, 3, 5, 7, 10 and 40 minutes before the cells were lysed and samples for Western blotting were taken.\nThe results shown in FIG. 9B were obtained when BHK(+TF) cells were exposed to 100 nM FVII, FVIIa, FVIIai, [Ala344]FVII or FXa for 5 min. […]"}, "[3]": {"conditions": "100 nM FVIIa, 0.1 ng/ml PDGF-BB"}},
  "data": [
    {"molecule": "N[C@@H](CSSC[C@H](N)C(=O)NO)C(=O)NO", "note": "[cystindihydroxamate, L-Cystine dihydroxamate]", "values": [
      {"measurement": "effect of zinc ions to abolish FVIIa-TF complex formation / activity in presence of chelator", "setting": "[1]", "result": "profoundly potentiated"}
    ]},
    {"molecule": "COc1cccc(-c2cc(=O)c3ccccc3o2)c1N", "note": "[PD98059]", "values": [
      {"measurement": "reporter response to 100 nM FVIIa after inhibitor pre-treatment", "setting": "human TF", "result": "did not respond"}
    ]},
    {"molecule": "COc1ccc2c(c1)CC[C@@H]1[C@@H]2CC[C@]2(C)[C@@H](NCCCCCCN3C(=O)CCC3=O)CC[C@@H]12", "note": "[Example U73343]", "values": [
      {"measurement": "effect of inhibitor on FVIIa/TF hyperchemotactic response to PDGF-BB", "setting": "[2]; [3]", "result": "No effect"}
    ]},
    {"molecule": "COc1ccc2c(c1)CC[C@@H]1[C@@H]2CC[C@]2(C)[C@@H](NCCCCCCN3C(=O)C=CC3=O)CC[C@@H]12", "note": "[Example U73122]", "values": [
      {"measurement": "inhibitor concentration giving total inhibition of hyperchemotactic response", "setting": "[2]; [3]", "result": 1, "unit": "µM"},
      {"measurement": "effect of inhibitor on FVIIa/TF hyperchemotactic response to PDGF-BB", "setting": "[2]; [3]", "result": "inhibited"}
    ]},
    {"molecule": "Hirudin", "values": [
      {"measurement": "effect on FVIIa/TF induced hyperchemotaxis", "setting": "[2]; 5 U/ml Hirudin, 100 nM FVIIa", "result": "had no any effect"},
      {"measurement": "migration of fibroblast in response to PDGF without FVIIa", "setting": "[2]", "result": "did not influence"}
    ]},
    {"molecule": "TAP: Tick anticoagulant peptide, specifically blocks the active site of FXa (YNRLCIKPRDWIDECDSNEGGERAYFRNGKGGCDSFWICPEDHTGADYYSSYRDCFNACI; UniProt P17726 1-60, looked up)", "values": [
      {"measurement": "effect on enhanced migration response transduced by FVIIa/TF", "setting": "[2]; 0.2-10 μM TAP, 100 nM FVIIa", "result": "not blocked"},
      {"measurement": "migration of fibroblast in response to PDGF without FVIIa", "setting": "[2]", "result": "did not influence"}
    ]},
    {"molecule": "B1", "values": [
      {"measurement": "activation (phosphorylation) of p44/42 MAPK", "setting": "MAPK p44/42", "result": "no significant activation"}
    ]}
  ]
}
